Laboratory results from PubChem BioAssay (NCI).
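Five concentrations, 48 hours, 96-well plates. TGI is the concentration that stops growth completely.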

Columns and labels:
Test in all cases: NCI anticancer screen, dose series, 48 h
HOP-62 NSCLC = test system: HOP-62 NSCLC
HOP-92 NSCLC = test system: HOP-92 NSCLC
RPMI-8226 leukemia = test system: RPMI-8226 leukemia
SNB-75 CNS = test system: SNB-75 CNS
CAKI-1 renal = test system: CAKI-1 renal
SF-295 CNS = test system: SF-295 CNS
IGROV1 ovarian = test system: IGROV1 ovarian
SK-MEL-5 melanoma = test system: SK-MEL-5 melanoma
SF-539 CNS = test system: SF-539 CNS
NCI-H460 lung = test system: NCI-H460 lung
COLO 205 colon = test system: COLO 205 colon
SW-620 colon = test system: SW-620 colon
M19-MEL melanoma = test system: M19-MEL melanoma
KM20L2 colon = test system: KM20L2 colon
OVCAR-3 ovarian = test system: OVCAR-3 ovarian
HOP-18 NSCLC = test system: HOP-18 NSCLC
SK-MEL-28 melanoma = test system: SK-MEL-28 melanoma
SNB-19 CNS = test system: SNB-19 CNS
A549 NSCLC = test system: A549 NSCLC
SF-268 CNS = test system: SF-268 CNS
DMS 273 small cell lung = test system: DMS 273 small cell lung
OVCAR-5 ovarian = test system: OVCAR-5 ovarian
786-0 renal = test system: 786-0 renal
XF 498 CNS = test system: XF 498 CNS
SNB-78 CNS = test system: SNB-78 CNS
ACHN renal = test system: ACHN renal
LOX IMVI melanoma = test system: LOX IMVI melanoma
EKVX NSCLC = test system: EKVX NSCLC
SR leukemia = test system: SR leukemia
DMS 114 small cell lung = test system: DMS 114 small cell lung
A498 renal = test system: A498 renal
HCT-15 colon = test system: HCT-15 colon
SN12C renal = test system: SN12C renal
NCI-H23 lung = test system: NCI-H23 lung
SK-MEL-2 melanoma = test system: SK-MEL-2 melanoma
KM12 colon = test system: KM12 colon
TK-10 renal = test system: TK-10 renal
K-562 leukemia = test system: K-562 leukemia
OVCAR-8 ovarian = test system: OVCAR-8 ovarian
HT29 colon = test system: HT29 colon
MALME-3M melanoma = test system: MALME-3M melanoma
UACC-62 melanoma = test system: UACC-62 melanoma
HCT-116 colon = test system: HCT-116 colon
RXF 393 renal = test system: RXF 393 renal
DLD-1 colon = test system: DLD-1 colon
OVCAR-4 ovarian = test system: OVCAR-4 ovarian
U251 CNS = test system: U251 CNS
UACC-257 melanoma = test system: UACC-257 melanoma
HL-60(TB) leukemia = test system: HL-60(TB) leukemia
MOLT-4 leukemia = test system: MOLT-4 leukemia
LXFL 529 NSCLC = test system: LXFL 529 NSCLC
M14 melanoma = test system: M14 melanoma
NCI-H522 lung = test system: NCI-H522 lung
UO-31 renal = test system: UO-31 renal
SK-OV-3 ovarian = test system: SK-OV-3 ovarian
HCC-2998 colon = test system: HCC-2998 colon
RXF-631 renal = test system: RXF-631 renal
CCRF-CEM leukemia = test system: CCRF-CEM leukemia
NCI-H226 lung = test system: NCI-H226 lung

Measured: TGI

CCC1=NC(CO)[C@H](c2ccccc2)O1 (stereo partly drawn)
not listed: HL-60(TB) leukemia | MOLT-4 leukemia | LXFL 529 NSCLC | M14 melanoma | NCI-H522 lung | UO-31 renal | SK-OV-3 ovarian | HCC-2998 colon | RXF-631 renal | CCRF-CEM leukemia | NCI-H226 lung
> 100 µM: all other assays above

COc1ccc(/C=C2\CCCC(C(NO)c3ccc(OC)cc3)C2=NO)cc1 (stereo not drawn)
79.6 µM: SNB-75 CNS
75.7 µM: UO-31 renal
83.3 µM: SF-539 CNS
95.3 µM: SK-MEL-28 melanoma
80.5 µM: MOLT-4 leukemia
96.7 µM: RXF 393 renal
47.6 µM: SK-MEL-5 melanoma
43.1 µM: HL-60(TB) leukemia
82 µM: NCI-H522 lung
not listed: HOP-92 NSCLC | OVCAR-5 ovarian | XF 498 CNS | LOX IMVI melanoma | SR leukemia | NCI-H226 lung
> 100 µM: all other assays above

CCOP(=O)(OCC)OC(C#N)c1ccc(-c2ccccc2)cc1 (stereo not drawn)
98.2 µM: HOP-18 NSCLC
32.4 µM: COLO 205 colon
28.5 µM: NCI-H522 lung | HCT-116 colon
36.8 µM: SN12C renal | UACC-257 melanoma
33.2 µM: KM12 colon
89.2 µM: TK-10 renal
50.3 µM: M19-MEL melanoma
29.6 µM: DMS 114 small cell lung
34.3 µM: HT29 colon
81.7 µM: HCC-2998 colon
41 µM: MALME-3M melanoma
78.5 µM: SK-OV-3 ovarian
33.3 µM: M14 melanoma
49.7 µM: CCRF-CEM leukemia
29.9 µM: MOLT-4 leukemia
31.6 µM: 786-0 renal
27.5 µM: DMS 273 small cell lung
50.1 µM: XF 498 CNS
40 µM: K-562 leukemia
59 µM: SR leukemia
34.9 µM: A549 NSCLC
52.6 µM: HOP-92 NSCLC
36.6 µM: OVCAR-4 ovarian
44.4 µM: SF-268 CNS
36.3 µM: NCI-H460 lung
64.6 µM: SNB-75 CNS
29.2 µM: UACC-62 melanoma
62.7 µM: A498 renal
45.8 µM: RPMI-8226 leukemia
29.1 µM: LOX IMVI melanoma
28.9 µM: U251 CNS
38.9 µM: SF-539 CNS
39.1 µM: OVCAR-3 ovarian
36.9 µM: HL-60(TB) leukemia | DLD-1 colon
26.8 µM: SW-620 colon
32 µM: LXFL 529 NSCLC
47.6 µM: CAKI-1 renal
37.4 µM: OVCAR-8 ovarian
31.8 µM: SK-MEL-5 melanoma
32.8 µM: HCT-15 colon
not listed: RXF 393 renal | RXF-631 renal
> 100 µM: all other assays above
